The target of assay [1] is T1, purified rabbit kidney neutral endopeptidase (Oryctolagus cuniculus, UniProt P08049).
T1 construct: from tissue; host or cells: rabbit kidney (purified enzyme)
T1 sequence (P08049 1-750): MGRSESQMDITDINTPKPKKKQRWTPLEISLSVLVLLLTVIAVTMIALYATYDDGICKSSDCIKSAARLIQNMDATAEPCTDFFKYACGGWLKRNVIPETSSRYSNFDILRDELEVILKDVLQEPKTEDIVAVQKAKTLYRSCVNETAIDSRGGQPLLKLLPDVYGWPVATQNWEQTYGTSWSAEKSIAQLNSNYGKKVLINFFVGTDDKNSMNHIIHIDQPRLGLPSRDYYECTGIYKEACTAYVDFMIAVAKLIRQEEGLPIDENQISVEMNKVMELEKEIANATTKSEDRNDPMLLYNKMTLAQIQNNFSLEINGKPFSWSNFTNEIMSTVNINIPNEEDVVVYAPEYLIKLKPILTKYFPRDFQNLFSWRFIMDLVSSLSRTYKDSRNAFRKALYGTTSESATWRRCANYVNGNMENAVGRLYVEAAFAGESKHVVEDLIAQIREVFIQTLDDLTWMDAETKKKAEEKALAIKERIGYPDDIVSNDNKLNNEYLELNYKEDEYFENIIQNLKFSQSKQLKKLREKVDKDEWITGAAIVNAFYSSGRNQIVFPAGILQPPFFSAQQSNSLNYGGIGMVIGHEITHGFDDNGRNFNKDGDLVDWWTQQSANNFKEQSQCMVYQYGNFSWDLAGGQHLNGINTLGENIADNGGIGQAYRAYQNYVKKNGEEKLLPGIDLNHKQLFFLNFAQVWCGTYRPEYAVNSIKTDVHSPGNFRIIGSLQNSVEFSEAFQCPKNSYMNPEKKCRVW
As to the kind of experiment: In vitro inhibitory potency against neutral endopeptidase. It counts as biochemical. To be noted: purified rabbit kidney enzyme, (3H)-D-Ala2-Leu5-enkephalin, 25° C., pH 7.4, DTT 100 equivalents. On the procedure: (§1) The biological activity relates to the inhibition of purified aminopeptidase N and of purified neutral endopeptidase.
(§2) 1) In vitro inhibition of enkephalinase activities.
a) Inhibitory potency against neutral endopeptidase
The inhibitory power is determined on purified rabbit kidney neutral endopeptidase following the protocol described in the literature (Blumberg et al. Life Sci. (1981) 28, 301). After a preincubation for 15 minutes at 25° C., an aliquot of proteins is incubated for 20 minutes at 25° C. in the presence of 20 nmol of (^3 H)-D-Ala^2 -Leu^5 -enkephalin and the test compound in solution in Tris-HCl buffer (pH 7.4) in the presence of dithiothreitol DTT (100 equivalents relative to the inhibitor). The reaction is stopped by adding 0.2 N HCl. The tritiated metabolite (^3 H)-Tyr-D-Ala-Gly is separated from the D-Ala^2 -Leu^5 -enkephalin by chromatography on a Porapak column, and the quantity formed measured using a liquid scintillation counter.
The activity of the different compounds is expressed as 50% inhibitory concentrations (IC50), and the results are summarized in Table II.

A further assay can be described thus: Hot plate test, i.v. Type of assay: in vivo. The settings on record: Mus musculus, iv, mice, hot plate 55° C., Table III 50% analgesia. On the procedure:
(§3) 1) Hot .plate test: This involves the licking and jumping reflex of the mouse on a plate heated to 55° C., according to the method of Jacob et al (Arch Int. Pharmacodyn. 122 287, 1959; 1961).
1.1. Administered i.v. (100 μl in tail vein) in mice, the compounds tested display a characteristic effect both on the latency time of jumping and on latency time of licking. These effects are antagonized by naloxone (0.5 mg/kg s.c.).
The results are expressed in Table III as a % analgesia. The percentage analgesia is expressed for each dose of compound tested by the following formula: [formula]

Assay [2] addresses T2, purified porcine kidney aminopeptidase N (Sus scrofa, UniProt P15145).
T2 construct: purchased Boehringer, France; host or cells: porcine kidney
T2 sequence (P15145 1-963): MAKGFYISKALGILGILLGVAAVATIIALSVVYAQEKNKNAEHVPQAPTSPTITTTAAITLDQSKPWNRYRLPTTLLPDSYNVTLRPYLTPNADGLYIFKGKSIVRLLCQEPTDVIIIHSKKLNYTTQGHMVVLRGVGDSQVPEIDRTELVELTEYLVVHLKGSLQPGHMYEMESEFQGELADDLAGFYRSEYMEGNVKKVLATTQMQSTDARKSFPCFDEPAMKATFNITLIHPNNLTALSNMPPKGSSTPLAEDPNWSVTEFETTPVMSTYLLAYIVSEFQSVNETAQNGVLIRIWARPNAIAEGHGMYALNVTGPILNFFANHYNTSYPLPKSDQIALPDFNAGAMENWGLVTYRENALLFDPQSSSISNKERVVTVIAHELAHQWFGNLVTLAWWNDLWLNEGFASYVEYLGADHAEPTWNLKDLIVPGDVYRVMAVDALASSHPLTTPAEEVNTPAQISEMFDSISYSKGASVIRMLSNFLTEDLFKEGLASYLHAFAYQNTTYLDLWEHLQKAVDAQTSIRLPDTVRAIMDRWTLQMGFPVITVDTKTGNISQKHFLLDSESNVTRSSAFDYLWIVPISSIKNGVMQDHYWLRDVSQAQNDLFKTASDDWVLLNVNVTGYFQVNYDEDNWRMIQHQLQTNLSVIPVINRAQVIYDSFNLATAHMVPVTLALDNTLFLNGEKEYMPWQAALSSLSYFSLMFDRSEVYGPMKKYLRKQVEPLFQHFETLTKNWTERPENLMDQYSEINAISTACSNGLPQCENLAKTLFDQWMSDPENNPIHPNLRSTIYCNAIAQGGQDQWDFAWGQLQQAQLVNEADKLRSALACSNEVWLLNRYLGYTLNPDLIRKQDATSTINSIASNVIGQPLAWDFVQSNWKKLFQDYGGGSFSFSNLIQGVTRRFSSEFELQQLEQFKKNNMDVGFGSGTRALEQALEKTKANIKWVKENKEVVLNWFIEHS
As to the kind of experiment: In vitro inhibitory potency against aminopeptidase N. It counts as biochemical. To be noted: purified porcine kidney enzyme, (3H)-Leu5-enkephalin, DTT. On the procedure: as §1, §2
b) Inhibitory potency against aminopeptidase N
The inhibitory power is measured on purified porcine kidney aminopeptidase (Boehringer, France). The assay is performed in a manner identical to the above, using (^3 H)-Leu^5 -enkephalin as a substrate. The metabolite formed, (^3 H)-Tyr, is separated by chromatography on a Porapak column, and the quantity formed measured using a liquid scintillation counter.

The nature of the next assay: Hot plate test, i.p. Type of assay: in vivo. The settings on record: mice. On the procedure:
as §3
1.2 Administered i.p. in mice, the test compounds display a characteristic effect on the times of restraint of jumping and of licking. These effects are antagonized by naloxone (0.5 mg/kg).
On the technique in general: In hot-plate and tail-flick tests a longer latency is read as antinociception.

A short description of assay [3]: Tail flick test (withdrawal of the tail), i.v. Type of assay: in vivo. To be noted: rats, 10 mg/kg. On the procedure:
3) Test of withdrawal of the tail in rats: (tail flick test): administered i.v. in rats, the compounds according to the invention produce a significant extension of the time of withdrawal of the tail. These effects are antagonized by naloxone (0.5 mg/kg s.c.).
The results are expressed as a % analgesia for the same dose (10 mg/kg) of all the compounds tested.

A short description of assay [4]: Tolerance after long-term administration, rats (% analgesia). The settings on record: rat, s.c. four times per 24 h, compound 8 10 mg/kg, morphine 2 mg/kg, compound 7 dose not given. Type of assay: in vivo. On the procedure: (§4) e) Study of the tolerance and addiction effects induced by long-term administration of the compound of Example 8:
(§5) 1) The compound 8 is administered s.c. four times per 24 hours at a dose of 5 mg/kg for 6 days to mice and at 10 mg/kg to rats.
(§6) Morphine (hydrochloride) is administered under the same conditions (0.5 mg/kg in mice, 2 mg/kg in rats). The control animals receive only the vehicle.

Assay [5] is described as follows: Tolerance after long-term administration, mice (% analgesia). It counts as in vivo. The settings on record: mouse, s.c. four times per 24 h, compound 8 5 mg/kg, morphine 0.5 mg/kg. As to the method: as §4, §5, §6
Assay [6] can be described thus: Test on abdominal cramps induced by phenylbenzoquinone, i.v. It counts as in vivo. As to the method:
2) Test on abdominal cramps
(Hendershot and Forsaith. J. Pharmacol. (1975), 125, 237): This test measures the number of cramps induced by i.p. injection of 100 μl of a 0.02% solution of phenylbenzoquinone. The number of cramps is counted during 10 minutes, 10 minutes after the injection. Administered i.v., the compounds decrease the number of cramps.

In another assay the test system is cerebral NEP. Nature of the assay: In vivo inhibition of cerebral NEP. The settings on record: mice, i.v. As to the method: 2) "In vivo" inhibition of cerebral NEP
The enzymatic activity of cerebral NEP is compared in mice untreated or treated with a given dose of compound (approximately 2.5 mg/kg injected intravenously. The animals are sacrificed at variable times after injection of the inhibitor, and the NEP activity is determined in the brain by measuring the degradation of (^3 H)-D-Ala^2 -Leu^5 -enkephalin.
For the final compound of Example 1, injected at a dose of 2.7 μmol/kg (47.6 μg in 100 μl), the following results are obtained: […]

Consider `C[S+]([O-])CCC(N)CSSCC(CC[S+](C)[O-])C(=O)NC(CC(=O)OCc1ccccc1)c1ccccc1` (stereo not shown) [Example 28], for which the IC50 in [1] is 3 nM; in assay [2], 2 nM. Besides, the ED50 in “Hot plate test, i.v.” amounted to 4 mg/kg.

With `C[S+]([O-])CCC(N)CSSCC(CC[S+](C)[O-])C(=O)NC1CCCCC1C(=O)OCc1ccccc1` (stereo not shown) [Example 32], the “dose in i.p. hot plate table” value in the assay “Hot plate test, i.p.” is 5.5 mg/kg. The IC50 in [1] stood at 4 nM; in assay [2], 2 nM. Besides, the ED50 in the assay “Hot plate test, i.v.” amounted to 2 mg/kg. The “% analgesia (tail flick)” value in [3] amounted to 36%.

`CN1CC[C@]23c4c5ccc(O)c4O[C@H]2[C@@H](O)C=C[C@H]3[C@H]1C5` [morphine, reference compound]: the “% analgesia relative to the controls” value in assay [4] (day 0) came out at 70 ± 12%; in [4] (day 1), 20 ± 3%; in [4] (day 6), 0%; in assay [5] (day 0) it was 100 ± 10%; in [5] (day 1) it was 60 ± 10%; in assay [5] (day 6), 0%.

Consider `CC(C)CC(N)CSSCC(Cc1ccccc1)C(=O)NCC(=O)OCc1ccccc1` (stereo not shown) [Example 1], for which the “dose in i.p. hot plate table” value in the assay “Hot plate test, i.p.” was 10 mg/kg. Further, the entries for the “% analgesia (abdominal cramps)” value in [6] (1 mg/kg), in assay [6] (3 mg/kg) and in assay [6] (9 mg/kg) were 24.6% ± 8, 46.9% ± 7.9 and 73.9% ± 8.2, respectively. For the same compound, the IC50 was 2 nM in [1] and 5 nM in assay [2]. Also, in “Hot plate test, i.v.”, the ED50 amounted to 4 mg/kg. For the same compound, the “% inhibition cerebral NEP” value is reported as 68 ± 4% in the assay on cerebral NEP (2.7 μmol/kg (Example 7: same conditions), 60'); 63 ± 2% in the assay with cerebral NEP (2.7 μmol/kg (Example 7: same conditions), 120'); 42 ± 16% with cerebral NEP (2.7 μmol/kg (Example 7: same conditions), 180'); 96 ± 9% with cerebral NEP (2.7 μmol/kg, 15' (n = 4)). In addition, the “% analgesia (tail flick)” value in assay [3] came out at 20%.

Turning to `CC(C)CC(CSSCC(N)CC[S+](C)[O-])C(=O)NN1CCOCC1` (stereo not shown) [Example 33], the IC50 in [1] came to 5 nM; in assay [2], 2 nM.

For `NC(CSSCC(Cc1ccccc1)C(=O)NCC(=O)OCc1ccccc1)Cc1ccccc1` (stereo not shown) [Example 4], the IC50 came out at 2 nM in assay [1] and 8 nM in assay [2].

Regarding `CC(C)CC(N)CSSCC(Cc1ccccc1)C(=O)NC(C)C(=O)OCc1ccccc1` (stereo not shown) [Example 2], the IC50 was 2.5 nM in [1] and 5 nM in [2].

`CC(NC(=O)C(CC[S+](C)[O-])CSSCC(N)CC[S+](C)[O-])C(=O)OCc1ccccc1` (stereo not shown) [Example 22]: in “Hot plate test, i.p.”, the “dose in i.p. hot plate table” value amounted to 6 mg/kg. In addition, the IC50 in assay [1] turned out to be 7 nM; in assay [2], 2 nM. Moreover, it took a dose of 4.5 mg/kg to reach the 50% effect level in the assay “Hot plate test, i.v.” (ED50).

Regarding `CSCCC(N)CSSCC(Cc1ccccc1)C(=O)NC(C)C(=O)OCc1ccccc1` (stereo not shown) [Example 6], the half-maximal inhibitory concentration (IC50) in [1] stood at 1.2 nM; in assay [2], 2 nM.

With `CC(C)CC(N)CSSCC(Cc1ccccc1)C(=O)NC(Cc1ccccc1)C(=O)OCc1ccccc1` (stereo not shown) [Example 3], the IC50 in assay [1] was 1.2 nM; in assay [2], 5 nM.

As for `C[S+]([O-])CCC(N)CSSCC(Cc1ccccc1)C(=O)NC1CCCCC1C(=O)OCc1ccccc1` (stereo not shown) [Example 26], the IC50 in assay [1] came to 5 nM; in [2], 2 nM. Further, the 50% effect level in “Hot plate test, i.v.” (ED50) was put at a dose of 8 mg/kg.

One may read the IC50 as the concentration that gives 50% inhibition. The term ED50 denotes the dose at which the effect has come halfway, by size or by number of responders. The low end stands for an effect at a small dose, the high end for a need for a large dose.

For the origin of these results see US5491169A, “Amino acid derivatives and their therapeutical applications” (priority 1989, dated 1996).
